11 compounds from PubChem BioAssay AID180 (DTP/NCI, 2004) can be followed below.

In the test the test system is BDF1 mice, Adenocarcinoma 755 s.c., tumor weight T/C. The test is described as follows: NCI In Vivo Anticancer Drug Screen. Data for tumor model Adenocarcinoma 755 (subcutaneous) in B6D2F1 (BDF1) mice. As to conditions: endpoint: mean tumor weight, higher = larger tumour. The method in brief: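 Values express treated (T) relative to vehicle-dosed control (C) animals, based on survival or tumour size measured after compound treatment of mice bearing a transplanted tumour.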

The mark [1] stands for this setting: dose: 125.0 mg/kg/injection, schedule: Q01DX011 (ip), vehicle: methylcellulose (MC).

What is called T/C is the result in the treated group divided by that in the control group, in per cent.

Several values for one entry are separate records, joined by “and”; a condition that tells them apart may be missing. Equal values may be shown once.

Regarding `O=c1[nH]cnc2c1ncn2C1CCCC1`, the T/C is 81 % of control (dose: 18.1 mg/kg/injection, schedule: Q01DX011 (ip), vehicle: carboxymethylcellulose (CMC)); 124 % of control (dose: 18.12 mg/kg/injection, schedule: Q01DX011 (ip), vehicle: carboxymethylcellulose (CMC)); 78 % of control (dose: 36.2 mg/kg/injection, schedule: Q01DX011 (ip), vehicle: carboxymethylcellulose (CMC)); 90 % of control (dose: 36.25 mg/kg/injection, schedule: Q01DX011 (ip), vehicle: carboxymethylcellulose (CMC)); 70 % of control (dose: 56.0 mg/kg/injection, schedule: Q01DX001 (ip), vehicle: carboxymethylcellulose (CMC)); 100 % of control and 87 % of control (dose: 72.5 mg/kg/injection, schedule: Q01DX011 (ip), vehicle: carboxymethylcellulose (CMC)). Moreover, the T/C is 70 % of control (dose: 112.0 mg/kg/injection, schedule: Q01DX001 (ip), vehicle: carboxymethylcellulose (CMC)); 75 % of control and 85 % of control (dose: 145.0 mg/kg/injection, schedule: Q01DX011 (ip), vehicle: carboxymethylcellulose (CMC)); 37 % of control (dose: 225.0 mg/kg/injection, schedule: Q01DX001 (ip), vehicle: carboxymethylcellulose (CMC)).

Regarding `Nc1nc(S(N)(=O)=O)nc2nc[nH]c12`, the T/C reads like this: (dose: 25.0 mg/kg/injection, schedule: Q01DX011 (ip), vehicle: carboxymethylcellulose (CMC)) 57 % of control; (dose: 75.0 mg/kg/injection, schedule: Q01DX011 (ip), vehicle: carboxymethylcellulose (CMC)) 82 % of control; (dose: 225.0 mg/kg/injection, schedule: Q01DX011 (ip), vehicle: carboxymethylcellulose (CMC)) 72 % of control.

Regarding `CN(CC(=O)O)C(=N)N`, the T/C (dose: 1500.0 mg/kg/injection, schedule: Q#A X022 (ip), vehicle: water) is 86 % of control and the T/C (dose: 2500.0 mg/kg/injection, schedule: Q#A X022 (ip), vehicle: water) was 66 % of control.

Consider `CC(C)CSc1ncnc2nc[nH]c12`, for which the T/C runs as follows: (dose: 6.0 mg/kg/injection, schedule: Q01DX011 (ip), vehicle: other) 45 % of control; (dose: 11.0 mg/kg/injection, schedule: Q01DX011 (ip), vehicle: other) 19 % of control; (dose: 22.0 mg/kg/injection, schedule: Q01DX011 (ip), vehicle: other) 5 % of control; (dose: 31.0 mg/kg/injection, schedule: Q01DX011 (ip), vehicle: other) 1 % of control; (dose: 45.0 mg/kg/injection, schedule: Q01DX011 (ip), vehicle: other) 7 % of control.

For `Nc1ccccc1N`, the T/C is, setting by setting: (dose: 31.25 mg/kg/injection, schedule: Q01DX011 (ip), vehicle: methylcellulose (MC)) 80 % of control; (dose: 62.5 mg/kg/injection, schedule: Q01DX011 (ip), vehicle: methylcellulose (MC)) 40 % of control; under setting [1], 55 % of control.

Turning to `Cn1ccc(N)nc1=O`, the T/C is 88 % of control (dose: 15.0 mg/kg/injection, schedule: Q01DX011 (ip), vehicle: methylcellulose (MC)); 108 % of control (dose: 31.0 mg/kg/injection, schedule: Q01DX011 (ip), vehicle: methylcellulose (MC)); 98 % of control (dose: 62.0 mg/kg/injection, schedule: Q01DX011 (ip), vehicle: methylcellulose (MC)); 84 % of control under setting [1].

Take `Cc1ccc(CSc2ncnc3nc[nH]c23)c2ccccc12`: the T/C is, setting by setting: (dose: 75.0 mg/kg/injection, schedule: Q01DX011 (ip), vehicle: methylcellulose (MC)) 54 % of control; (dose: 150.0 mg/kg/injection, schedule: Q01DX011 (ip), vehicle: methylcellulose (MC)) 33 % of control; (dose: 300.0 mg/kg/injection, schedule: Q01DX011 (ip), vehicle: methylcellulose (MC)) 38 % of control; (dose: 600.0 mg/kg/injection, schedule: Q01DX011 (ip), vehicle: methylcellulose (MC)) 11 % of control.

Turning to `CCCCn1cnc2c(=O)[nH]cnc21`, the T/C reads like this: (dose: 0.9 mg/kg/injection, schedule: Q01DX011 (ip), vehicle: carboxymethylcellulose (CMC)) 76 % of control; (dose: 1.8 mg/kg/injection, schedule: Q01DX011 (ip), vehicle: carboxymethylcellulose (CMC)) 83 % of control; (dose: 1.8 mg/kg/injection, schedule: Q01DX011 (oral), vehicle: carboxymethylcellulose (CMC)) 76 % of control; (dose: 3.7 mg/kg/injection, schedule: Q01DX011 (ip), vehicle: carboxymethylcellulose (CMC)) 91 % of control; (dose: 3.7 mg/kg/injection, schedule: Q01DX011 (oral), vehicle: carboxymethylcellulose (CMC)) 107 % of control; (dose: 7.5 mg/kg/injection, schedule: Q01DX011 (ip), vehicle: carboxymethylcellulose (CMC)) 63 % of control. For the same compound, the T/C by setting is: (dose: 7.5 mg/kg/injection, schedule: Q01DX011 (oral), vehicle: carboxymethylcellulose (CMC)) 82 % of control; (dose: 15.0 mg/kg/injection, schedule: Q01DX011 (oral), vehicle: carboxymethylcellulose (CMC)) 90 % of control; (dose: 40.0 mg/kg/injection, schedule: Q01DX001 (ip), vehicle: other) 60 % of control; (dose: 66.1 mg/kg/injection, schedule: Q01DX011 (ip), vehicle: other) 111 % of control; (dose: 81.0 mg/kg/injection, schedule: Q01DX001 (ip), vehicle: other) 45 % of control; (dose: 132.2 mg/kg/injection, schedule: Q01DX011 (ip), vehicle: other) 90 % of control. Also, the T/C is, setting by setting: (dose: 132.25 mg/kg/injection, schedule: Q01DX011 (ip), vehicle: carboxymethylcellulose (CMC)) 58 % of control; (dose: 132.25 mg/kg/injection, schedule: Q01DX011 (oral), vehicle: carboxymethylcellulose (CMC)) 70 % of control; (dose: 162.0 mg/kg/injection, schedule: Q01DX001 (ip), vehicle: other) 122 % of control; (dose: 264.5 mg/kg/injection, schedule: Q01DX011 (ip), vehicle: carboxymethylcellulose (CMC)) 105 % of control; (dose: 264.5 mg/kg/injection, schedule: Q01DX011 (ip), vehicle: other) 76 % of control; (dose: 264.5 mg/kg/injection, schedule: Q01DX011 (oral), vehicle: carboxymethylcellulose (CMC)) 86 % of control. Moreover, the T/C is 102 % of control (dose: 324.0 mg/kg/injection, schedule: Q01DX001 (ip), vehicle: other) and 89 % of control (dose: 529.0 mg/kg/injection, schedule: Q01DX011 (oral), vehicle: carboxymethylcellulose (CMC)).

For `CC1(C)O[C@@H]2C[C@H]3[C@@H]4CCC5=CC(=O)CC[C@]5(C)[C@@]4(F)[C@@H](O)C[C@]3(C)[C@]2(C(=O)CO)O1`, the T/C was 60 % of control (dose: 0.3 mg/kg/injection, schedule: Q01DX011 (sc), vehicle: steriod suspending solution); 42 % of control (dose: 0.7 mg/kg/injection, schedule: Q01DX011 (sc), vehicle: steriod suspending solution); 82 % of control (dose: 0.75 mg/kg/injection, schedule: Q01DX011 (sc), vehicle: steriod suspending solution); 36 % of control (dose: 6.0 mg/kg/injection, schedule: Q01DX011 (sc), vehicle: steriod suspending solution); 41 % of control (dose: 6.25 mg/kg/injection, schedule: Q01DX011 (sc), vehicle: steriod suspending solution); 16 % of control (dose: 12.0 mg/kg/injection, schedule: Q01DX011 (sc), vehicle: steriod suspending solution). Moreover, the T/C is 31 % of control (dose: 12.5 mg/kg/injection, schedule: Q01DX011 (sc), vehicle: steriod suspending solution); 8 % of control (2×) and 14 % of control (dose: 24.0 mg/kg/injection, schedule: Q01DX011 (sc), vehicle: steriod suspending solution); 20 % of control (dose: 25.0 mg/kg/injection, schedule: Q01DX011 (sc), vehicle: steriod suspending solution); 8 % of control (dose: 48.0 mg/kg/injection, schedule: Q01DX011 (sc), vehicle: steriod suspending solution).

`CC1CC(C)(O)CC(C(O)CC2CC(=O)NC(=O)C2)C1=O` (stereo not given): the T/C was 71 % of control (dose: 0.05 mg/kg/injection, schedule: Q01DX011 (ip), vehicle: methylcellulose (MC)); 62 % of control (dose: 0.1 mg/kg/injection, schedule: Q01DX011 (ip), vehicle: alkali diluted with saline); 44 % of control (dose: 0.1 mg/kg/injection, schedule: Q01DX011 (ip), vehicle: methylcellulose (MC)); 17 % of control (dose: 0.2 mg/kg/injection, schedule: Q01DX011 (ip), vehicle: alkali diluted with saline); 32 % of control (dose: 0.2 mg/kg/injection, schedule: Q01DX011 (ip), vehicle: methylcellulose (MC)).

For `CS(=O)(=O)OCCCCCOS(C)(=O)=O`, the T/C runs as follows: (dose: 4.5 mg/kg/injection, schedule: Q01DX011 (ip), vehicle: carboxymethylcellulose (CMC)) 110 % of control; (dose: 9.0 mg/kg/injection, schedule: Q01DX011 (ip), vehicle: carboxymethylcellulose (CMC)) 86 % of control; (dose: 18.0 mg/kg/injection, schedule: Q01DX011 (ip), vehicle: carboxymethylcellulose (CMC)) 67 % of control; (dose: 25.0 mg/kg/injection, schedule: Q01DX011 (ip), vehicle: methylcellulose (MC)) 11 % of control; (dose: 37.0 mg/kg/injection, schedule: Q01DX011 (ip), vehicle: carboxymethylcellulose (CMC)) 3 % of control.
